What all share (format): cell-based
Assay [1] concerns HCC827-SVD cells (human EGFR exon 20 insertion mutant D770_N771 insSVD). The experiment in a line: Cell growth inhibition (CellTiter-Glo, 3 days) in HCC827-SVD. To be noted: 72 h, 3 days after administration. Here is the method:
(§1) 1. Preparation of HCC827-SVD, HCC827-ASV and HCC827-YVMA Cell Lines
HCC827-SVD cell line were generated by first transducing HCC827 cells (ATCC) with lentiviral particles expressing codon-optimized human EGFR exon 20 insertion mutant D770_N771 insSVD, and then selecting under 5 μg/ml purimycin treatment for a week.
The resulting cells were further transduced with lentiviral particles carrying EGFR sgRNA and CAS9 to knockout the endogenous alleles of EGFR, and then selected under 500 μg/ml hygromycin B treatment for two weeks. Single clone was subsequently generated by limiting dilution approach. Endogenous EGFR knockout was confirmed by Sanger sequencing of cell genomic DNA and expression of exogenous mutant EGFR was verified by Western blot analysis.
(§2) 2. Cell Growth Inhibition for HCC827, HCC827-SVD, HCC827-ASV, HCC827-YVMA and A431.
(§3) HCC827(ATCC), HCC827-SVD, HCC827-ASV, HCC827-YVMA were seeded in 96-well plates at 5000 cells/well in 90 μl of RPMI growth medium containing 10% FBS and 1% Penicillin Streptomycin. A431 (ATCC) cells were seed in 96-well plates at 5000 cells/well in 90 μl of DMEM growth medium containing 10% FBS and 1% Penicillin Streptomycin. Cells were incubated at 3700 overnight. The following day, the test compound was administered to the cells by using 1 Ox compound stock solution prepared in growth medium at various concentrations. After administration of the compound, cells were then incubated at 3700 for 3 days. Before CeIlTiter-Glo assay, the plates were equilibrated at room temperature for approximately 10 minutes. 100 ul of CelTiter-Glo® Reagent (Promega) was added to each well. The plates were then incubated at room temperature for 10 minutes and luminescence was recorded by EnSpire plate reader (PerkinElmer).

Assay [2] deals with HCC827-YVMA cells (human ERBB2 exon20 insertion mutant A775_G776ins YVMA). The experiment in a line: Cell growth inhibition (CellTiter-Glo, 3 days) in HCC827-YVMA. To be noted: 72 h, 3 days after administration.
From the text: as §1
(§4) HCC827-ASV and HCC827-YVMA cell lines were generated in the similar approach as HCC827-SVD except that HCC827 cells (ATCC) were first transduced with lentiviral particles expressing codon-optimized human EGFR exon 20 insertion mutant A769_D770insASV and human ERBB2 exon20 insertion mutant A775_G776ins YVMA, respectively.
as §2, §3

Assay [3] relates to HCC827-ASV cells (human EGFR exon 20 insertion mutant A769_D770insASV). The assay is described as follows: Cell growth inhibition (CellTiter-Glo, 3 days) in HCC827-ASV. To be noted: 72 h, 3 days after administration.
From the text: as §1, §4, §2, §3

The next assay deals with HCC827 cells. The assay is described as follows: Cell growth inhibition (CellTiter-Glo, 3 days) in HCC827. Particulars: Homo sapiens, 72 h, 3 days after administration. Here is the method: as §2, §3
A further assay deals with A431 cells. The assay is described as follows: Cell growth inhibition (CellTiter-Glo, 3 days) in A431. Particulars: Homo sapiens, A-431, 72 h, 3 days after administration. Here is the method: as §2, §3

Each structure is given as a SMILES string. Where only a bound is given, the exact number is not on record here.

As for `C=CC(=O)N1CCC(Nc2cc3c(Nc4ccc(Oc5cc(-c6nc(C)no6)ccn5)cc4F)ncnc3cc2OC)CC1` [Compound 44, 1-(4-((4-((2-fluoro-4-((4-(3-methyl-1,2,4-oxadiazol-5-yl)pyridin-2-yl)oxy)phenyl)amino)-7-methoxyquinazolin-6-yl)amino)piperidin-1-yl)prop-2-en-1-one], the GI50 in assay [1] was 0.03 to 0.06 µM; in assay [2] it was less than 0.03 µM; in assay [3] it was 0.03 to 0.06 µM; in the assay with HCC827 cells it was 0.03 to 0.06 µM; in the assay on A431 cells, 0.1 to 0.3 µM.

Turning to `C=CC(=O)N1CCC(Nc2cc3c(Nc4ccc(Oc5cc(-c6ccc(C)nc6)ccn5)cc4F)ncnc3cc2OC)CC1` [Compound 46, 1-[4-({4-[(2-fluoro-4-{[4-(6-methylpyridin-3-yl)pyridin-2-yl]oxy}phenyl)amino]-7-methoxyquinazolin-6-yl}amino)piperidin-1-yl]prop-2-en-1-one], the GI50 is 0.03 to 0.06 µM in assay [1]; less than 0.03 µM in assay [2]; 0.06 to 0.1 µM in assay [3]; 0.1 to 0.3 µM in the assay on HCC827 cells; no less than 1 µM in the assay on A431 cells.

Turning to `C=CC(=O)N1CCC(Nc2cc3c(Nc4ccc(Oc5nc(-c6cnc(C7CC7)nc6)cs5)cc4F)ncnc3cc2OC)CC1` [Compound 51, 1-(4-((4-((4-((4-(2-cyclopropylpyrimidin-5-yl)thiazol-2-yl)oxy)-2-fluorophenyl)amino)-7-methoxyquinazolin-6-yl)amino)piperidin-1-yl)prop-2-en-1-one], the GI50 is 0.03 to 0.06 µM in assay [1]; 0.03 to 0.06 µM in assay [2]; 0.03 to 0.06 µM in assay [3]; 0.03 to 0.06 µM with HCC827 cells; 0.1 to 0.3 µM in the assay with A431 cells.

Regarding `C=CC(=O)N1CC2(CC(Oc3cc4c(Nc5ccc(Oc6ccn(-c7cnc(OC)nc7)n6)cc5F)ncnc4cc3OC)C2)C1` [Compound 79, 1-(6-((4-((2-fluoro-4-((1-(2-methoxypyrimidin-5-yl)-1H-pyrazol-3-yl)oxy)phenyl)amino)-7-methoxyquinazolin-6-yl)oxy)-2-azaspiro [3.3]heptan-2-yl) prop-2-en-1-one], the GI50 (in assay [1]; in assay [2]; in assay [3]; with HCC827 cells; with A431 cells) was no less than 1 µM throughout.

For the compound `C=CC(=O)N1CC[C@@H](Oc2cc3c(Nc4ccc(Oc5ccn(-c6cnc(OC)nc6)n5)cc4F)ncnc3cc2OC)C1` [Compound 80, (R)-1-(3-((4-((2-fluoro-4-((1-(2-methoxypyrimidin-5-yl)-1H-pyrazol-3-yl)oxy)phenyl)amino)-7-methoxyquinazolin-6-yl)oxy)pyrrolidin-1-yl) prop-2-en-1-one], the GI50 (in assay [1]; in assay [2]; in assay [3]; in the assay on HCC827 cells; in the assay on A431 cells) was no less than 1 µM in each case.

Take `C=CC(=O)N1CC2(CC(Nc3cc4c(Nc5ccc(Oc6ccn(-c7cnc(OC)nc7)n6)cc5F)ncnc4cc3OC)C2)C1` [Compound 84, 1-(6-((4-((2-fluoro-4-((1-(2-methoxypyrimidin-5-yl)-1H-pyrazol-3-yl)oxy)phenyl)amino)-7-methoxyquinazolin-6-yl)amino)-2-azaspiro[3.3]heptan-2-yl)prop-2-en-1-one]: the GI50 (in assay [1]; in assay [2]; in assay [3]; in the assay with HCC827 cells; in the assay with A431 cells) was no less than 1 µM each time.

Turning to `[2H]C([2H])([2H])Oc1cc2ncnc(Nc3ccc(Oc4nc(-c5ccc(C)nc5)cs4)cc3F)c2cc1NC1CCN(C(=O)C=C)CC1` [Compound 87, 1-(4-((4-((2-fluoro-4-((4-(6-methylpyridin-3-yl)thiazol-2-yl)oxy)phenyl)amino)-7-(methoxy-d3)quinazolin-6-yl)amino)piperidin-1-yl)prop-2-en-1-one], the GI50 in assay [1] is 0.03 to 0.06 µM; in assay [2], 0.03 to 0.06 µM; in assay [3] it was 0.06 to 0.1 µM; with HCC827 cells, 0.1 to 0.3 µM; in the assay with A431 cells it was 0.1 to 0.3 µM.

On to `C=CC(=O)N1CCC(Nc2cc3c(Nc4ccc(Oc5ccnc(-c6csc(C)n6)c5)cc4F)ncnc3cc2OC)CC1` [Compound 97, 1-(4-((4-((2-fluoro-4-((2-(2-methylthiazol-4-yl)pyridin-4-yl)oxy)phenyl)amino)-7-methoxyquinazolin-6-yl)amino)piperidin-1-yl) prop-2-en-1-one], for which the GI50 in assay [1] is less than 0.03 µM; in assay [2], less than 0.03 µM; in assay [3], less than 0.03 µM; in the assay with HCC827 cells, 0.03 to 0.06 µM; in the assay with A431 cells, 0.3 to 0.6 µM.

Turning to `C=CC(=O)N1CCC(Nc2cc3c(Nc4ccc(Oc5ccnc(N6CCCCC6)c5)cc4F)ncnc3cc2OC)CC1` [Compound 100, 1-(4-((4-((2-fluoro-4-((2-(piperidin-1-yl)pyridin-4-yl)oxy)phenyl)amino)-7-methoxyquinazolin-6-yl)amino)piperidin-1-yl)prop-2-en-1-one], the GI50 in assay [1] lay within 0.1 to 0.3 µM; in assay [2], 0.1 to 0.3 µM; in assay [3] it was 0.1 to 0.3 µM; in the assay on HCC827 cells, 0.1 to 0.3 µM; with A431 cells, 0.3 to 0.6 µM.

For `C=CC(=O)N1CCC(Nc2cc3c(Nc4ccc(Oc5ccnc(N6C[C@@H](C)O[C@@H](C)C6)c5)cc4F)ncnc3cc2OC)CC1` [Compound 101, 1-(4-((4-((4-((2-((2R,6S)-2,6-dimethylmorpholino)pyridin-4-yl)oxy)-2-fluorophenyl)amino)-7-methoxyquinazolin-6-yl)amino)piperidin-1-yl)prop-2-en-1-one], the GI50 was less than 0.03 µM in assay [1]; less than 0.03 µM in assay [2]; less than 0.03 µM in assay [3]; 0.06 to 0.1 µM with HCC827 cells; no less than 1 µM in the assay with A431 cells.

With `C=CC(=O)N1CCC(Nc2cc3c(Nc4ccc(Oc5ccnc(N6CCC(C(F)(F)F)C6)c5)cc4F)ncnc3cc2OC)CC1` (stereo not drawn) [Compound 150, 1-(4-((4-((2-fluoro-4-((2-(3-(trifluoromethyl)pyrrolidin-1-yl)pyridin-4-yl)oxy)phenyl)amino)-7-methoxyquinazolin-6-yl)amino)piperidin-1-yl)prop-2-en-1-one], the GI50 in assay [1] is less than 0.03 µM; in assay [2] it was less than 0.03 µM; in assay [3], less than 0.03 µM; with HCC827 cells it was less than 0.03 µM; in the assay on A431 cells, 0.1 to 0.3 µM.

Turning to `C=CC(=O)N1CCC(Nc2cc3c(Nc4ccc(Oc5ccnc(N6CCC(C#N)C6)c5)cc4F)ncnc3cc2OC)CC1` (stereo not drawn) [Compound 151, 1-(4-(4-((6-((1-acryloylpiperidin-4-yl)amino)-7-methoxyquinazolin-4-yl)amino)-3-fluorophenoxy)pyridin-2-yl)pyrrolidine-3-carbonitrile], the GI50 was less than 0.03 µM in assay [1]; less than 0.03 µM in assay [2]; less than 0.03 µM in assay [3]; 0.1 to 0.3 µM in the assay on HCC827 cells; 0.6 to 1 µM in the assay on A431 cells.

On to `C=CC(=O)N1CCC(Oc2cc3c(Nc4ccc(Oc5ccnc(N6C[C@H]7COC[C@H]7C6)c5)cc4F)ncnc3cc2OC)CC1` [Compound 165, 1-(4-((4-((2-fluoro-4-((2-((3aR,6aS)-tetrahydro-1H-furo[3,4-c]pyrrol-5(3H)-yl)pyridin-4-yl)oxy)phenyl)amino)-7-methoxyquinazolin-6-yl)oxy)piperidin-1-yl)prop-2-en-1-one], for which the GI50 in assay [1] was less than 0.03 µM; in assay [2], 0.03 to 0.06 µM; in assay [3] it was less than 0.03 µM; in the assay on HCC827 cells, 0.3 to 0.6 µM; in the assay on A431 cells, no less than 1 µM.

Consider `C=CC(=O)N1CCC(Nc2cc3c(Nc4ccc(Oc5ccnc(C(=O)NC(C)(C)C)c5)cc4F)ncnc3cc2OC)CC1` [Compound 167, 4-(4-((6-((1-acryloylpiperidin-4-yl)amino)-7-methoxyquinazolin-4-yl)amino)-3-fluorophenoxy)-N-(tert-butyl)picolinamide], for which the GI50 in assay [1] is 0.06 to 0.1 µM; in assay [2], 0.06 to 0.1 µM; in assay [3], 0.03 to 0.06 µM; in the assay on HCC827 cells, less than 0.03 µM; in the assay with A431 cells, 0.6 to 1 µM.

For `C=CC(=O)N1CCC(Nc2cc3c(Nc4ccc(Oc5ccnc(C(=O)NC)c5)cc4F)ncnc3cc2OC)CC1` [Compound 181, 4-(4-((6-((1-acryloylpiperidin-4-yl)amino)-7-methoxyquinazolin-4-yl)amino)-3-fluorophenoxy)-N-methylpicolinamide], the GI50 in assay [1] was less than 0.03 µM; in assay [2], less than 0.03 µM; in assay [3], less than 0.03 µM; in the assay on HCC827 cells, less than 0.03 µM; in the assay with A431 cells it was 0.1 to 0.3 µM.

The values above are taken from US20240398805A1, “QUINAZOLINE DERIVED COMPOUNDS AS EGFR INHIBITORS AND THEIR USES THEREOF” (ACCUTAR BIOTECHNOLOGY INC., priority 2021, published 2024).
